The target in experiment [1] is T1, HIF-2α (Homo sapiens, UniProt Q99814). The experiment is described as follows: HIF-2α Luciferase Reporter Assay (serum), HRE-luciferase 786-0 cells in 100% human serum. The experiment is classed as cell-based. As to conditions: for IC50: 100% human serum, 786-0 reporter cells, overnight incubation, read-out: Serum Potency. An outline of the steps:
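786-0 cells stably expressing an HRE-luciferase reporter were plated and rested 3 h. They were then treated overnight at 37 °C with compound diluted in 100% human serum. Serum was replaced with Opti-MEM, ONE-Glo luminescence was read, and IC50 came from a 4-parameter logistic fit.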
A general note: A reporter such as luciferase makes a cellular process visible.

The target in experiment [2] is T1, HIF-2α. The experiment is described as follows: HIF-2α Luciferase Reporter Assay (serum free) in HIF-Luc-786-0 cells. The class given is cell-based. Conditions: Opti-MEM, 786-0 reporter cells, 20 hours incubation. An outline of the steps:
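786-0 cells stably transduced with HIF luciferase reporter, 20,000 cells/well in serum-free Opti-MEM, compounds (50 uM downward, 1% DMSO) 20 h at 37 °C. ONE-Glo luminescence normalized to DMSO and no-cell controls; IC50 from four-parameter fit.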

Setting [3] is: ratio of IC50 in 100% serum to IC50 in serum free conditions, approximate.

Each structure is given as a SMILES string. Where two headings read alike, the source gives them in different places.

T1 sequence (Q99814 whole entry): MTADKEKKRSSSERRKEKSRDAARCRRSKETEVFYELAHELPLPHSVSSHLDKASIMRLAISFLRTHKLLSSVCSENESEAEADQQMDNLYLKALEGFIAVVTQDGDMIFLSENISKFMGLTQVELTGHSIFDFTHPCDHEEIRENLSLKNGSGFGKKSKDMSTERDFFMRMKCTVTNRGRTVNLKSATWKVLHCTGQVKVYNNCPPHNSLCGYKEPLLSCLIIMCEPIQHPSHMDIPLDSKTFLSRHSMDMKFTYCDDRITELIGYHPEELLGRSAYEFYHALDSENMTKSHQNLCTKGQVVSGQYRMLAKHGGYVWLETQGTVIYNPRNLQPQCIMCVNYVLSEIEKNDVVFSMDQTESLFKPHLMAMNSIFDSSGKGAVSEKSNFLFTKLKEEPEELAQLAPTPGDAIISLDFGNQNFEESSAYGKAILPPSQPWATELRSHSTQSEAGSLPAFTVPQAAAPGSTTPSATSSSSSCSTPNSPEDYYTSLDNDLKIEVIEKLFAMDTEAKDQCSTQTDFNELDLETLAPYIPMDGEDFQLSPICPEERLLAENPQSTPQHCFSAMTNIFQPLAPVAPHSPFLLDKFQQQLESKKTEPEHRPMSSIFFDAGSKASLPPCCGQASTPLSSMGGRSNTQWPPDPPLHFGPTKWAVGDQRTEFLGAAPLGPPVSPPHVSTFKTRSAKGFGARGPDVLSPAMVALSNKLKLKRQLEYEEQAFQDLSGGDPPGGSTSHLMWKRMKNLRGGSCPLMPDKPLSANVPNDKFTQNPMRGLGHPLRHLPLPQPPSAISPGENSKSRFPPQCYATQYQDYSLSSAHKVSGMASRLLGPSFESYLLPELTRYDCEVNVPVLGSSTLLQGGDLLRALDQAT

As to `C[C@H](C#N)CCn1nc(C(F)(F)F)c2c1C[C@@H](F)[C@H]2O` [Example 83, (2S)-4-[(4S,5R)-5-fluoro-4-hydroxy-3-(trifluoromethyl)-1H,4H,5H,6H-cyclopenta[c]pyrazol-1-yl]-2-methylbutanenitrile], the IC50 is greater than 1000 nM in experiment [1] and 100 to 1000 nM in experiment [2]. Further, the “Serum Shift (approximate)” value in experiment [1] (setting [3]) amounted to 3.

Consider `O[C@H]1c2c(C(F)(F)F)nn([C@H]3C[C@H](COC(F)F)C3)c2CC1(F)F` [Example 102, (4S)-1-[3-(difluoromethoxymethyl)cyclobutyl]-5,5-difluoro-3-(trifluoromethyl)-4,6-dihydrocyclopenta[c]pyrazol-4-ol], for which the IC50 is greater than 1000 nM in experiment [1] and 100 to 1000 nM in experiment [2]. Also, the “Serum Shift (approximate)” value in experiment [1] (setting [3]) is on record as 17.

Consider `O[C@H]1c2c(C(F)(F)F)nn([C@@H]3CC[C@@H](F)[C@@H](F)C3)c2[C@H](F)C1(F)F` [Example 153, (4S,6S)-1-[(1R,3S,4R)-3,4-difluorocyclohexyl]-5,5,6-trifluoro-3-(trifluoromethyl)-4,6-dihydrocyclopenta[c]pyrazol-4-ol], for which the IC50 is greater than 1000 nM in experiment [1] and 100 to 1000 nM in experiment [2]. Further, the “Serum Shift (approximate)” value in experiment [1] (setting [3]) is on record as 18.

In the case of `O[C@H]1c2c(C(F)(F)F)nn([C@@H]3C[C@@H](F)[C@@H](F)[C@@H](F)C3)c2CC1(F)F` [Example 70, (4S)-5,5-difluoro-1-[(3R,5S)-3,4,5-trifluorocyclohexyl]-3-(trifluoromethyl)-4,6-dihydrocyclopenta[c]pyrazol-4-ol], the IC50 in experiment [1] and in experiment [2] was 100 to 1000 nM throughout. Moreover, the “Serum Shift (approximate)” value in experiment [1] (setting [3]) came out at 0.

`O[C@H]1c2c(C(F)(F)F)nn([C@@H]3C[C@@H]4[C@H](C3)C4(F)F)c2CC1(F)F` (single isomer, unassigned) [125/126 DIAST-2]: the figures for the IC50 in experiment [1] and in experiment [2] were greater than 1000 nM and 100 to 1000 nM, respectively. In addition, in experiment [1] (setting [3]), the “Serum Shift (approximate)” value is 5.

Regarding `O[C@H]1c2c(C(F)(F)F)nn(CCCC(F)(F)F)c2[C@H](F)C1(F)F` (single isomer, unassigned) [Example 124], the IC50 is greater than 1000 nM in experiment [1] and less than 100 nM in experiment [2]. Further, the “Serum Shift (approximate)” value in experiment [1] (setting [3]) turned out to be 11.

`CC(CCn1nc(C(F)(F)F)c2c1CCC(F)(F)[C@H]2O)OC(F)F` (stereo partly drawn) [Example 15, (4S)-1-[3-(difluoromethoxy)butyl]-5,5-difluoro-3-(trifluoromethyl)-6,7-dihydro-4H-indazol-4-ol]: the IC50 in experiment [1] and in experiment [2] was less than 100 nM in each case. In addition, in experiment [1] (setting [3]), the “Serum Shift (approximate)” value was found to be 6.

As for `CO[C@H](CCn1nc(C(F)(F)F)c2c1[C@H](F)C(F)(F)[C@H]2O)C(F)(F)F` (single isomer, unassigned) [148/149 DIAST-1], the IC50 in experiment [1] and in experiment [2] was less than 100 nM throughout. Further, the “Serum Shift (approximate)” value in experiment [1] (setting [3]) is 9.

For the compound `O=S1(=O)CC(Cn2nc(C(F)(F)F)c3c2[C@H](F)C(F)(F)[C@H]3O)C1` (single isomer, unassigned) [144/145 DIAST-1], the IC50 in experiment [1] is greater than 1000 nM; in experiment [2] it was 100 to 1000 nM. For the same compound, the “Serum Shift (approximate)” value in experiment [1] (setting [3]) amounted to 3.

In the case of `O[C@H]1c2c(C(F)(F)F)nn(CCCOC(F)(F)F)c2[C@@H](F)CC1(F)F` (single isomer, unassigned) [129/130 DIAST-1], the values for the IC50 in experiment [1] and in experiment [2] were greater than 1000 nM and 100 to 1000 nM, respectively. Further, in experiment [1] (setting [3]), the “Serum Shift (approximate)” value came to 18.

In the case of `O[C@H]1c2c(C(F)(F)F)nn([C@H]3C[C@@H]4[C@H](C3)C4(F)F)c2CC1(F)F` (single isomer, unassigned) [125/126 DIAST-1], the IC50 is greater than 1000 nM in experiment [1] and 100 to 1000 nM in experiment [2]. Further, the “Serum Shift (approximate)” value in experiment [1] (setting [3]) stood at 9.

Regarding `O[C@H]1c2c(C(F)(F)F)nn(-c3ccc(F)cc3)c2CC1(F)F` [Example 114, (4S)-5,5-difluoro-1-(4-fluorophenyl)-3-(trifluoromethyl)-4,6-dihydrocyclopenta[c]pyrazol-4-ol], in experiment [1], the “Serum Shift (approximate)” value was found to be 27 and the IC50 is greater than 1000 nM. In experiment [2], this compound registered an IC50 of 100 to 1000 nM.

Take `O[C@H]1c2c(C(F)(F)F)nn([C@@H]3C[C@@H](F)[C@@H](F)[C@@H](F)C3)c2[C@H](F)[C@H]1F` [Example 138, (4S,5S,6S)-5,6-difluoro-1-[(3R,5S)-3,4,5-trifluorocyclohexyl]-3-(trifluoromethyl)-5,6-dihydro-4H-cyclopenta[c]pyrazol-4-ol]: the IC50 in experiment [1] was greater than 1000 nM; in experiment [2], less than 100 nM. Moreover, the “Serum Shift (approximate)” value in experiment [1] (setting [3]) is reported as 9.

Regarding `O[C@H]1c2c(C(F)(F)F)nn([C@H]3CC[C@@H](F)[C@@H](F)C3)c2CC1(F)F` (racemic) [91 DIAST-2, (4S)-1-[(rel-1S,3S,4R)-3,4-difluorocyclohexyl]-5,5-difluoro-3-(trifluoromethyl)-4,6-dihydrocyclopenta[c]pyrazol-4-ol], the IC50 was greater than 1000 nM in experiment [1] and less than 100 nM in experiment [2]. The “Serum Shift (approximate)” value in experiment [1] (setting [3]) is 9.

For the compound `O[C@H]1c2c(C(F)(F)F)nn(CCc3ccsc3)c2CC1(F)F` [Example 76, (4S)-5,5-difluoro-1-(2-thiophen-3-ylethyl)-3-(trifluoromethyl)-4,6-dihydrocyclopenta[c]pyrazol-4-ol], the IC50 is greater than 1000 nM in experiment [1] and 100 to 1000 nM in experiment [2]. In addition, in experiment [1] (setting [3]), the “Serum Shift (approximate)” value worked out at 17.

In the case of `O[C@H]1c2c(C(F)(F)F)nn(CCC3CC3(F)F)c2[C@@H](F)[C@H]1F` (stereo partly drawn) [Example 152, (4S,5S,6R)-1-[2-(2,2-difluorocyclopropyl)ethyl]-5,6-difluoro-3-(trifluoromethyl)-5,6-dihydro-4H-cyclopenta[c]pyrazol-4-ol], the IC50 in experiment [1] and in experiment [2] was 100 to 1000 nM each time. The “Serum Shift (approximate)” value in experiment [1] (setting [3]) amounted to 3.

In the case of `O[C@H]1c2c(C(F)(F)F)nn([C@H]3CCC[C@@H](F)C3)c2CC1(F)F` (racemic) [90 DIAST-1, (4S)-5,5-difluoro-1-[(rel-1S,3R)-3-fluorocyclohexyl]-3-(trifluoromethyl)-4,6-dihydrocyclopenta[c]pyrazol-4-ol], the IC50 in experiment [1] is 100 to 1000 nM; in experiment [2], less than 100 nM. Further, the “Serum Shift (approximate)” value in experiment [1] (setting [3]) worked out at 6.

As to `O[C@H]1c2c(C(F)(F)F)nn(C3CC[C@H](F)[C@H](F)C3)c2CC1(F)F` (single isomer, unassigned) [72/73 DIAST-2], the IC50 was 100 to 1000 nM in experiment [1] and less than 100 nM in experiment [2]. Also, the “Serum Shift (approximate)” value in experiment [1] (setting [3]) worked out at 3.

`O[C@H]1c2c(C(F)(F)F)nn([C@@H]3CCC[C@H](C(F)(F)F)C3)c2CC1(F)F` [Example 82, (4S)-5,5-difluoro-3-(trifluoromethyl)-1-[(1R,3S)-3-(trifluoromethyl)cyclohexyl]-1H,4H,5H,6H-cyclopenta[c]pyrazol-4-ol]: the IC50 in experiment [1] was greater than 1000 nM; in experiment [2], 100 to 1000 nM. Besides, the “Serum Shift (approximate)” value in experiment [1] (setting [3]) stood at 23.

As to `O[C@H]1c2c(C(F)(F)F)nn(CCCOC(F)(F)F)c2CC[C@H]1F` [Example 120, (4S,5R)-5-fluoro-1-[3-(trifluoromethoxy)propyl]-3-(trifluoromethyl)-4,5,6,7-tetrahydroindazol-4-ol], the IC50 is 100 to 1000 nM in experiment [1] and less than 100 nM in experiment [2]. Besides, the “Serum Shift (approximate)” value in experiment [1] (setting [3]) is reported as 4.

As for `O[C@H]1c2c(C(F)(F)F)nn(C3CCC(F)(F)C3)c2CC1(F)F` (mixture of isomers) [Example 54, (4S)-1-(3,3-difluorocyclopentyl)-5,5-difluoro-3-(trifluoromethyl)-4,6-dihydrocyclopenta[c]pyrazol-4-ol], the results for the IC50 in experiment [1] and in experiment [2] were greater than 1000 nM and 100 to 1000 nM, respectively. For the same compound, in experiment [1] (setting [3]), the “Serum Shift (approximate)” value is 5.

For the compound `CO[C@H](CCn1nc(C(F)(F)F)c2c1[C@@H](F)C(F)(F)[C@H]2O)C(F)(F)F` (single isomer, unassigned) [148/149 DIAST-2], the IC50 is 100 to 1000 nM in experiment [1] and less than 100 nM in experiment [2]. The “Serum Shift (approximate)” value in experiment [1] (setting [3]) is reported as 12.

As for `O[C@H]1c2c(C(F)(F)F)nn(C3CC4(C3)CC(F)(F)C4)c2[C@H](F)[C@H]1F` (single isomer, unassigned) [Example 135], the IC50 in experiment [1] was greater than 1000 nM; in experiment [2], less than 100 nM. The “Serum Shift (approximate)” value in experiment [1] (setting [3]) is on record as 12.

Regarding `O[C@H]1c2c(C(F)(F)F)nn(-c3ccc(F)c(F)c3)c2CC1(F)F` [Example 115], the results for the IC50 in experiment [1] and in experiment [2] were greater than 1000 nM and 100 to 1000 nM, respectively. For the same compound, the “Serum Shift (approximate)” value in experiment [1] (setting [3]) is 45.

As for `O[C@H]1c2c(C(F)(F)F)nn([C@H]3C[C@@H](F)[C@@H](F)[C@@H](F)C3)c2CC1(F)F` (mixture of isomers) [Example 88, (4S)-5,5-difluoro-1-[(3R,5S)-3,4,5-trifluorocyclohexyl]-3-(trifluoromethyl)-4,6-dihydrocyclopenta[c]pyrazol-4-ol], the IC50 in experiment [1] is 100 to 1000 nM; in experiment [2], less than 100 nM. The “Serum Shift (approximate)” value in experiment [1] (setting [3]) turned out to be 6.

Regarding `COC(C)CCn1nc(C(F)(F)F)c2c1CCC(F)(F)[C@H]2O` (stereo partly drawn) [Example 13, (4S)-5,5-difluoro-1-(3-methoxybutyl)-3-(trifluoromethyl)-6,7-dihydro-4H-indazol-4-ol], the IC50 in experiment [1] and in experiment [2] was 100 to 1000 nM in each case. The “Serum Shift (approximate)” value in experiment [1] (setting [3]) is listed as 2.

In the case of `O[C@H]1c2c(C(F)(F)F)nn([C@H]3CC[C@H](F)CC3)c2CC1(F)F` [Example 96, (4S)-5,5-difluoro-1-(4-fluorocyclohexyl)-3-(trifluoromethyl)-4,6-dihydrocyclopenta[c]pyrazol-4-ol], the IC50 in experiment [1] is greater than 1000 nM; in experiment [2] it was less than 100 nM. Moreover, in experiment [1] (setting [3]), the “Serum Shift (approximate)” value was 7.

For the origin of these results see patent US12071411B2, “Inhibitors of HIF-2α and methods of use thereof” (ARCUS BIOSCIENCES, INC., priority 2021, dated 2024).
